Experimental data: ChEMBL document CHEMBL3785084, “Rational modification of the lead molecule: Enhancement in the anticancer and dihydrofolate reductase inhibitory activity” (Bioorg Med Chem Lett, 2016)

Target: T1, Dihydrofolate reductase (Homo sapiens, UniProt P00374)
T1 sequence (P00374 whole entry): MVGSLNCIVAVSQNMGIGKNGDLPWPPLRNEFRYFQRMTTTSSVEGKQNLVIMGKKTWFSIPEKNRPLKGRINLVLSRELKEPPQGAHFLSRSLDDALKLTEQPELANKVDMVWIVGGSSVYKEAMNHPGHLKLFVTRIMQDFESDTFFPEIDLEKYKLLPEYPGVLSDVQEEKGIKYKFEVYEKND
Test: Inhibition of human DHFR assessed as conversion of dihydrofolic acid to tetrahydrfolic acid by enzyme immunoassay in presence of NADPH
Conditions: not given

| SMILES | IC50 |
| --- | --- |
| COc1cc(/C=C2\C(=O)Nc3ccccc32)cc(OC)c1O | 500 nM |

Test system: not listed separately
Test: Cytotoxicity against human HL-60(TB) cells assessed as cell growth at 10^-5 M after 48 hrs by sulforhodamine B assay
Format: functional
Conditions: HL-60, 48 h, read-out: Activity

| SMILES | growth at 10 µM |
| --- | --- |
| COc1cc(/C=C2\C(=O)Nc3ccccc32)cc(OC)c1O | 1.88% |

Test system: K562
Test: Cytotoxicity against human K562 cells assessed as cell growth at 10^-5 M after 48 hrs by sulforhodamine B assay
Format: functional
Conditions: K562, 48 h, read-out: Activity

| SMILES | growth at 10 µM |
| --- | --- |
| COc1cc(/C=C2\C(=O)Nc3ccccc32)cc(OC)c1O | 7.58% |

Test system: not listed separately
Test: Cytotoxicity against human MOLT4 cells assessed as cell growth at 10^-5 M after 48 hrs by sulforhodamine B assay
Format: functional
Conditions: MOLT-4, 48 h, read-out: Activity

| SMILES | growth at 10 µM |
| --- | --- |
| COc1cc(/C=C2\C(=O)Nc3ccccc32)cc(OC)c1O | 0.62% |

Test system: SR
Test: Cytotoxicity against human SR cells assessed as cell growth at 10^-5 M after 48 hrs by sulforhodamine B assay
Format: functional
Conditions: read-out: Activity

| SMILES | growth at 10 µM |
| --- | --- |
| COc1cc(/C=C2\C(=O)Nc3ccccc32)cc(OC)c1O | -10.3% |

Test system: A549
Test: Cytotoxicity against human A549 cells assessed as cell growth at 10^-5 M after 48 hrs by sulforhodamine B assay
Format: functional
Conditions: A549, 48 h, read-out: Activity

| SMILES | growth at 10 µM |
| --- | --- |
| COc1cc(/C=C2\C(=O)Nc3ccccc32)cc(OC)c1O | 67.9% |

Test system: EKVX
Test: Cytotoxicity against human EKVX cells assessed as cell growth at 10^-5 M after 48 hrs by sulforhodamine B assay
Format: functional
Conditions: read-out: Activity

| SMILES | growth at 10 µM |
| --- | --- |
| COc1cc(/C=C2\C(=O)Nc3ccccc32)cc(OC)c1O | 110% |

Test system: NCI-H460
Test: Cytotoxicity against human NCI-H460 cells assessed as cell growth at 10^-5 M after 48 hrs by sulforhodamine B assay
Format: functional
Conditions: NCI-H460, 48 h, read-out: Activity

| SMILES | growth at 10 µM |
| --- | --- |
| COc1cc(/C=C2\C(=O)Nc3ccccc32)cc(OC)c1O | 40.1% |

Test system: not listed separately
Test: Cytotoxicity against human HCC2998 cells assessed as cell growth at 10^-5 M after 48 hrs by sulforhodamine B assay
Format: functional
Conditions: HCC 2998, 48 h, read-out: Activity

| SMILES | growth at 10 µM |
| --- | --- |
| COc1cc(/C=C2\C(=O)Nc3ccccc32)cc(OC)c1O | 78.8% |

Test system: not listed separately
Test: Cytotoxicity against human HCT15 cells assessed as cell growth at 10^-5 M after 48 hrs by sulforhodamine B assay
Format: functional
Conditions: HCT-15, 48 h, read-out: Activity

| SMILES | growth at 10 µM |
| --- | --- |
| COc1cc(/C=C2\C(=O)Nc3ccccc32)cc(OC)c1O | 61.6% |

Test system: HT-29
Test: Cytotoxicity against human HT-29 cells assessed as cell growth at 10^-5 M after 48 hrs by sulforhodamine B assay
Format: functional
Conditions: HT-29, 48 h, read-out: Activity

| SMILES | growth at 10 µM |
| --- | --- |
| COc1cc(/C=C2\C(=O)Nc3ccccc32)cc(OC)c1O | 75.7% |

Test system: not listed separately
Test: Cytotoxicity against human SW620 cells assessed as cell growth at 10^-5 M after 48 hrs by sulforhodamine B assay
Format: functional
Conditions: SW-620, 48 h, read-out: Activity

| SMILES | growth at 10 µM |
| --- | --- |
| COc1cc(/C=C2\C(=O)Nc3ccccc32)cc(OC)c1O | 31.5% |

Test system: not listed separately
Test: Cytotoxicity against human SF268 cells assessed as cell growth at 10^-5 M after 48 hrs by sulforhodamine B assay
Format: functional
Conditions: SF-268, 48 h, read-out: Activity

| SMILES | growth at 10 µM |
| --- | --- |
| COc1cc(/C=C2\C(=O)Nc3ccccc32)cc(OC)c1O | 78.3% |

Test system: not listed separately
Test: Cytotoxicity against human SF295 cells assessed as cell growth at 10^-5 M after 48 hrs by sulforhodamine B assay
Format: functional
Conditions: SF-295, 48 h, read-out: Activity

| SMILES | growth at 10 µM |
| --- | --- |
| COc1cc(/C=C2\C(=O)Nc3ccccc32)cc(OC)c1O | 60.6% |

Test system: not listed separately
Test: Cytotoxicity against human SF539 cells assessed as cell growth at 10^-5 M after 48 hrs by sulforhodamine B assay
Format: functional
Conditions: SF-539, 48 h, read-out: Activity

| SMILES | growth at 10 µM |
| --- | --- |
| COc1cc(/C=C2\C(=O)Nc3ccccc32)cc(OC)c1O | 68.8% |

Test system: not listed separately
Test: Cytotoxicity against human SNB19 cells assessed as cell growth at 10^-5 M after 48 hrs by sulforhodamine B assay
Format: functional
Conditions: SNB-19, 48 h, read-out: Activity

| SMILES | growth at 10 µM |
| --- | --- |
| COc1cc(/C=C2\C(=O)Nc3ccccc32)cc(OC)c1O | 83.7% |

Test system: M14
Test: Cytotoxicity against human M14 cells assessed as cell growth at 10^-5 M after 48 hrs by sulforhodamine B assay
Format: functional
Conditions: M14, 48 h, read-out: Activity

| SMILES | growth at 10 µM |
| --- | --- |
| COc1cc(/C=C2\C(=O)Nc3ccccc32)cc(OC)c1O | 53.6% |

Test system: MDA-MB-435
Test: Cytotoxicity against human MDA-MB-435 cells assessed as cell growth at 10^-5 M after 48 hrs by sulforhodamine B assay
Format: functional
Conditions: MDA-MB-435, 48 h, read-out: Activity

| SMILES | growth at 10 µM |
| --- | --- |
| COc1cc(/C=C2\C(=O)Nc3ccccc32)cc(OC)c1O | -25.3% |

Test system: SK-MEL-2
Test: Cytotoxicity against human SK-MEL-2 cells assessed as cell growth at 10^-5 M after 48 hrs by sulforhodamine B assay
Format: functional
Conditions: SK-MEL-2, 48 h, read-out: Activity

| SMILES | growth at 10 µM |
| --- | --- |
| COc1cc(/C=C2\C(=O)Nc3ccccc32)cc(OC)c1O | 50.4% |

Test system: SK-MEL-28
Test: Cytotoxicity against human SK-MEL-28 cells assessed as cell growth at 10^-5 M after 48 hrs by sulforhodamine B assay
Format: functional
Conditions: SK-MEL-28, 48 h, read-out: Activity

| SMILES | growth at 10 µM |
| --- | --- |
| COc1cc(/C=C2\C(=O)Nc3ccccc32)cc(OC)c1O | 90.2% |

Test system: not listed separately
Test: Cytotoxicity against human UACC257 cells assessed as cell growth at 10^-5 M after 48 hrs by sulforhodamine B assay
Format: functional
Conditions: UACC-257, 48 h, read-out: Activity

| SMILES | growth at 10 µM |
| --- | --- |
| COc1cc(/C=C2\C(=O)Nc3ccccc32)cc(OC)c1O | 62.6% |

Test system: not listed separately
Test: Cytotoxicity against human IGROV1 cells assessed as cell growth at 10^-5 M after 48 hrs by sulforhodamine B assay
Format: functional
Conditions: IGROV-1, 48 h, read-out: Activity

| SMILES | growth at 10 µM |
| --- | --- |
| COc1cc(/C=C2\C(=O)Nc3ccccc32)cc(OC)c1O | 70.2% |

Test system: not listed separately
Test: Cytotoxicity against human OVCAR5 cells assessed as cell growth at 10^-5 M after 48 hrs by sulforhodamine B assay
Format: functional
Conditions: OVCAR-5, 48 h, read-out: Activity

| SMILES | growth at 10 µM |
| --- | --- |
| COc1cc(/C=C2\C(=O)Nc3ccccc32)cc(OC)c1O | 112% |

Test system: not listed separately
Test: Cytotoxicity against human NCI-ADR-RES cells assessed as cell growth at 10^-5 M after 48 hrs by sulforhodamine B assay
Format: functional
Conditions: read-out: Activity

| SMILES | growth at 10 µM |
| --- | --- |
| COc1cc(/C=C2\C(=O)Nc3ccccc32)cc(OC)c1O | 19.1% |

Test system: not listed separately
Test: Cytotoxicity against human SKOV3 cells assessed as cell growth at 10^-5 M after 48 hrs by sulforhodamine B assay
Format: functional
Conditions: SK-OV-3, 48 h, read-out: Activity

| SMILES | growth at 10 µM |
| --- | --- |
| COc1cc(/C=C2\C(=O)Nc3ccccc32)cc(OC)c1O | 93.5% |

Test system: 786-0
Test: Cytotoxicity against human 786-0 cells assessed as cell growth at 10^-5 M after 48 hrs by sulforhodamine B assay
Format: functional
Conditions: 786-0, 48 h, read-out: Activity

| SMILES | growth at 10 µM |
| --- | --- |
| COc1cc(/C=C2\C(=O)Nc3ccccc32)cc(OC)c1O | 83.2% |

Test system: A498
Test: Cytotoxicity against human A498 cells assessed as cell growth at 10^-5 M after 48 hrs by sulforhodamine B assay
Format: functional
Conditions: A498, 48 h, read-out: Activity

| SMILES | growth at 10 µM |
| --- | --- |
| COc1cc(/C=C2\C(=O)Nc3ccccc32)cc(OC)c1O | 52.5% |

Test system: not listed separately
Test: Cytotoxicity against human Caki1 cells assessed as cell growth at 10^-5 M after 48 hrs by sulforhodamine B assay
Format: functional
Conditions: CAKI-1, 48 h, read-out: Activity

| SMILES | growth at 10 µM |
| --- | --- |
| COc1cc(/C=C2\C(=O)Nc3ccccc32)cc(OC)c1O | 37.7% |

Test system: not listed separately
Test: Cytotoxicity against human RXF393 cells assessed as cell growth at 10^-5 M after 48 hrs by sulforhodamine B assay
Format: functional
Conditions: RXF 393, 48 h, read-out: Activity

| SMILES | growth at 10 µM |
| --- | --- |
| COc1cc(/C=C2\C(=O)Nc3ccccc32)cc(OC)c1O | 71.3% |

Test system: not listed separately
Test: Cytotoxicity against human UO31 cells assessed as cell growth at 10^-5 M after 48 hrs by sulforhodamine B assay
Format: functional
Conditions: UO-31, 48 h, read-out: Activity

| SMILES | growth at 10 µM |
| --- | --- |
| COc1cc(/C=C2\C(=O)Nc3ccccc32)cc(OC)c1O | 60% |

Test system: not listed separately
Test: Cytotoxicity against human PC3 cells assessed as cell growth at 10^-5 M after 48 hrs by sulforhodamine B assay
Format: functional
Conditions: PC-3, 48 h, read-out: Activity

| SMILES | growth at 10 µM |
| --- | --- |
| COc1cc(/C=C2\C(=O)Nc3ccccc32)cc(OC)c1O | 51.2% |

Test system: not listed separately
Test: Cytotoxicity against human DU145 cells assessed as cell growth at 10^-5 M after 48 hrs by sulforhodamine B assay
Format: functional
Conditions: DU-145, 48 h, read-out: Activity

| SMILES | growth at 10 µM |
| --- | --- |
| COc1cc(/C=C2\C(=O)Nc3ccccc32)cc(OC)c1O | 92.5% |

Test system: MDA-MB-231
Test: Cytotoxicity against human MDA-MB-231 cells assessed as cell growth at 10^-5 M after 48 hrs by sulforhodamine B assay
Format: functional
Conditions: MDA-MB-231, 48 h, read-out: Activity

| SMILES | growth at 10 µM |
| --- | --- |
| COc1cc(/C=C2\C(=O)Nc3ccccc32)cc(OC)c1O | 63.1% |

Test system: not listed separately
Test: Cytotoxicity against human BT549 cells assessed as cell growth at 10^-5 M after 48 hrs by sulforhodamine B assay
Format: functional
Conditions: BT-549, 48 h, read-out: Activity

| SMILES | growth at 10 µM |
| --- | --- |
| COc1cc(/C=C2\C(=O)Nc3ccccc32)cc(OC)c1O | 74.8% |
